# Data: patent US9962403B2, “Formulation drug of sodium ion and calcium ion for treating cancer, tumor and nonmalignancy” (priority 2011, dated 2018)
# Like-named read-outs stand apart in the source and are kept apart here.
# Assays:
# [1] = for toxicity of high concentration solutions injected intramuscularly: paralysis of legs, cardiovascular and pulmonary failure, death
# Description: First, potential roles of Na^+, K^+, Ca^2+ and Mg^2+ in treatment of tumor and cancer were tested. In vivo experiments in BALB/c mice were performed. High concentration solutions of Na^+, K^+, Ca^2+ and Mg^2+ were injected intramuscularly. […] Experiments were focused on high concentrations of Na^+ and Ca^2+ solutions.
# At the beginning, in vivo toxicity of high concentrations of Na^+, Ca^2+, K^+, and Mg^2+ in BALB/c mice was examined.
# BALB/c mice were housed and inbreeded in the contracted university animal facilities that was in accordance with the NIH regulation. Body weight of the BALB/c mice at the experiment was 30±g. The toxicity test was performed using intramuscular injection with 0.2ml of 35% NaCl, 35% CaCl2, 34% KCl or 35% MgCl2 in a mouse, respectively.
# In total, 20 BALB/c mice (10 males and 10 females) were randomly divided into 5 groups, with 4 mice in each group.
# [2] = tested on: MCF7 human breast cancer cells; test: Fluorescent labeled Na+/Ca2+ probe technique, influx and death of cancer cells; format: cell-based
# Description: Fluorescent labeled ion probe technique was used in study of the influx of Na^+ and Ca^2+ from the extracellular fluid into intracellular fluid of cancer cells.
# liver tumor = details: 36.5% hypertonic saline; cited from earlier work
# multiple glomus tumors = details: 23.4% solution; 4 sessions of intralumenal injection in 6 months; one patient; cited from earlier work
# [3] = tested on: MCA207 mouse sarcoma, MC38 mouse colorectal cancer and B16F1 mouse melanoma; details: for average necrosis of all treated tumors: 48 hours; for occurrence of tumor necrosis: high concentrations, evaluated 24, 48 and 72 hours after treatment
# Description: Three animal tumor models of MCA207 mouse sarcoma, MC38 mouse colorectal cancer and B16F1 mouse melanoma were established in C57BL6 mice. The treatment of intratumoral injection started when tumors reached 8mm×8mm in size.
# Thirty-six C57BL6 tumor mice were randomly divided into three groups according to tumor types (12 animals in each group). Then, animals in each group were further divided into 4 subgroups (3 tumor mice in each subgroup). Tumor animals in subgroup-1, as the control, were treated by intratumoral injection with 0.1ml of normal saline. Tumor animals in subgroup-2 were treated by intratumoral injection with 0.1ml of various concentrations of sodium chloride solution.
# Twenty-four, 48 and 72 hours after treatment, experimental results were evaluated by measuring the dimension of necrotic area of the treated tumors using a ruler.
# [4] = tested on: 18 types of human cancer cell lines; test: Ex vivo killing test in tissue culture (Trypan blue exclusion or flow cytometry); format: cell-based
# Description: Tumor cells were cultured in DMEM or RPMI1640 medium supplemented with 10% fetal bovine serum (FCS). The medium in the control group was free of the “medicinal ion bomb” solution. […] Mortality of cancer cells was evaluated by Trypan blue exclusion test or flow cytometry.
# The role of the “medicinal ion bomb” in killing cancer cells was tested in tissue culture. Cancer cells were seeded in Petri dish using DMEM or RPMI1640 medium supplemented with 10% FCS. Each type of cancer cell line was prepared at 2×10^6 cells/ml in a 5ml plastic tube. […] Three to five minutes later, 0.5% Trypan Blue was added and mixed with the cell suspension for 2 minutes. The number of dead cancer cells was counted under an inverted microscope. Selected samples of treated cancer cell suspension for flow cytometer were prepared in phosphate-buffered saline (PBS) and mortality of cells was assayed using flow cytometer (Beckman Coulter Inc., CA).
# tumors = test: Earlier intratumoral injection of arsenic; format: in vivo, mice
# Description: An occasional opportunity sparked this invention. […] One day, the inventor went shopping in a Chinese supermarket and bought a dozen salted duck eggs. On the way back home, […] wondered why these salted duck eggs could be preserved at room temperature for years without rotting. The answer is that proteins and yolks in salted duck eggs are coagulated or clotted by high concentration of salt (sodium chloride), in particular by high concentration of sodium ions. The inventor linked this phenomenon to cell biology, cell physiology, membrane potential, ion science and cancer treatment, and presumed that high concentrations of sodium chloride might coagulate or clot proteins in cancer cells like what occurs in salted duck eggs.
# [5] = 0.2ml of 35% NaCl, 35% CaCl2, 34% KCl or 35% MgCl2, mouse 30 g
smiles,measurement,setting,value
[Cl-].[K+] [KCl],outcome of animals after intramuscular injection,[1]; [5],died from cardiopulmonary failure 3 hours after treatment
same,toxicity of high concentration solutions injected intramuscularly,[1],toxic
"[Cl-].[Na+] [sodium chloride solution, sodium chloride]",time to kill MCF7 cells,[2]; 5.0479 M of Na+ solution alone,20 ± 4 s
same,outcome of animals after intramuscular injection,[1]; [5],survived the experiment
same,treatment outcome,liver tumor,none of the tumors were successfully treated
same,treatment outcome,multiple glomus tumors,did not result in successful treatment
same,average necrosis of all treated tumors,[3]; 3.0 M solution,30%±10
same,minimal effective treatment concentration,"[3]; Na+ alone or in combination, intratumoral injection, room temperature, listed as Na^+ solution",2.0 M
same,occurrence of tumor necrosis,[3],necrosis occurred in all tumors
same,average necrosis of all treated tumors,[3]; single intratumoral injection 0.1 mL of 5.0479 M solution,90%± 5
same,average necrosis of all treated tumors,"[3]; single intratumoral injection 0.1 mL of 5.0479 M solution, listed as Na^+ solution",90%±5
[Cl-].[Cl-].[Mg+2] [MgCl2],outcome of animals after intramuscular injection,"[1]; mouse, in vivo",not well absorbed
same,toxicity of high concentration solutions injected intramuscularly,[1],toxic
"[Ca+2].[Cl-].[Cl-] [calcium chloride solution, calcium chloride]",effect of Ca2+ solutions on cancer cells,"[2]; 250 mM, 1.0 M, 1.5 M, 2.0 M and 3.0 M, Ca2+ probe fluorescence microscopy",immediate sickness or death of cancer cells
same,outcome of animals after intramuscular injection,[1]; 0.2ml of 17.5% CaCl2,survived the experiment
same,outcome of animals after intramuscular injection,[1]; [5],died in 3 hours after treatment
same,effect of tissue culture medium containing 250 mM of Ca2+,[4],"induced sickness, apoptosis and death"
same,maximal effective treatment concentration,"[3]; Ca2+ alone or in combination, intratumoral injection, room temperature",6.0 M
same,local toxicity at the injection site,[3]; high concentration of calcium chloride solution,toxic that causes unhealed wound at the injection site
same,occurrence of tumor necrosis,[3],necrosis occurred in all tumors
same,necrosis of treated tumors,"[3]; single intratumoral injection 0.1 ml of 250 mM, 1.0 M, 1.5 M, 2.0 M and 3.0 M, 48 hours posttreatment",coagulating necrosis of all treated tumors
[AsH3] [arsenic],treatment outcome,tumors,did not work well
